Key:
infantile female rabbits = experiment: Clauberg test, progestational activity (McPhail values) after oral administration to infantile female rabbits; assay type: in vivo
Procedure: For the progestational effect, the McPhail values were determined in the usual Clauberg test after oral administration to infantile female rabbits. The minimum amount required to achieve a positive effect is expressed by the McPhail value of 1.5.

seminal vesicles = experiment: antiandrogen test, seminal vesicle weight in testosterone propionate-treated male castrated rats; assay type: in vivo; details: daily dosage s.c. over 7 days, 0.1 mg testosterone propionate daily s.c., halves organ weight caused by testosterone propionate
Procedure: The antiandrogenic activity was tested on male castrated rats weighing about 100 g. Starting with 1 week after castration, the test compound was administered in staggered doses subcutaneously over a period of 7 days. Over the same time period, the animals received daily 0.1 mg. of testosterone propionate subcutaneously. On the eighth day, the animals were sacrificed, and the weights of the seminal vesicles were determined. As the ED50, the daily dosage was determined which reduced the organ weight caused solely by testosterone propionate to one-half.

[1] = oral, dose 0.001 mg, infantile female rabbits
[2] = oral, dose 0.003 mg, infantile female rabbits
[3] = oral, dose 0.01 mg, infantile female rabbits

Structure (SMILES)	Progestational Activity, McPhail (infantile female rabbits; [1])	Progestational Activity, McPhail (infantile female rabbits; [2])	Progestational Activity, McPhail (infantile female rabbits; [3])	threshold dose (McPhail 1.5) for the progestational activity (infantile female rabbits; oral, infantile female rabbits, minimum amount for positive effect)	Antiandrogenic Activity ED50 Seminal Vesicle (seminal vesicles)	Clauberg test, comparison with compound B (infantile female rabbits; compared with the conventional compound B)
CC(=O)O[C@]1(C(C)=O)CC[C@H]2[C@@H]3C=C(Cl)C4=CC(=O)[C@@H]5C[C@@H]5[C@]4(C)[C@H]3CC[C@@]21C [B, 17-acetoxy-6-chloro-1α,2α -methylene-4,6-pregnadiene-3,20-dione, reference compound]	1.0	1.5	2.9	0.003 mg	0.1 to 0.3 mg	–
CC(=O)O[C@]1(C(C)=O)CC[C@H]2[C@@H]3C=C(Cl)C4=CC(=O)[C@@H]5C[C@@H]5[C@]4(C)[C@H]3[C@@H](F)C[C@@]21C [A, 17-acetoxy-6-chloro-11β-fluoro-1α,2α -methylene-4,6-pregnadiene-3,20-dione]	1.1	2.0	3.4	–	0.3 to 1.0 mg	superior

Source: patent US4073900A, “11β-FLUOROPREGNENES” (Schering Aktiengesellschaft, priority 1975, dated 1978)
